For series [1], the system named is Escherichia coli. Put plainly: Agar plate disc-diffusion, antibacterial activity (inhibition zone). The settings on record: nutrient agar, 37° C., 48 hours, DMSO zone subtracted; for inhibition zone, Escherichia coli, A: A = concentration of comp. = 10,000 μL; for inhibition zone, Escherichia coli, B: B = concentration of comp. = 30.000 μL; for inhibition zone, Escherichia coli, C: C = concentration of comp. = 50,000 μL. It is filed as cell-based. The protocol: (§1) The agar plate disc-diffusion method was applied. Sterilized filter papers (6 mm in diameter) were wetted with 10 μL of a solution of 1-(2-hydroxybenzylideneamino)-5-phenylimidazolidine-2,4-dione (4) to be tested, containing 10 mg/mL in DMSO, and the discs were allowed to air dry. The discs were then placed onto the surface of agar plates (nutrient agar for bacteria and Sabouraud's dextrose agar for fungi) seeded with the test organism. Each plate contained 15 mL of the agar medium, previously seeded with 0.2 mL of the broth culture of each organism pregrown for 18 hours. The plates were incubated at 37° C. for 48 hours, and 72 hours for fungi. The inhibition zones was measured in millimeter. Discs impregnated with DMSO were used as a control, and its inhibition zone was subtracted from the tested compound actual inhibition zone.
(§2) The results of the antimicrobial testing can be observed in Tables 1 and 2, below, with ciprofloxacin serving as a reference.
(In general: A growth-free zone around the sample is the usual read-out of agar diffusion tests.)

Series [2] concerns Staphylococcus aureus. The series is described as above. It is filed as cell-based. The settings on record: nutrient agar, 37° C., 48 hours, DMSO zone subtracted; for inhibition zone, Staphylococcus aureus, A: A = concentration of comp. = 10,000 μL; for inhibition zone, Staphylococcus aureus, B: B = concentration of comp. = 30.000 μL; for inhibition zone, Staphylococcus aureus, C: C = concentration of comp. = 50,000 μL. Here is the method: as §1, §2

Series [3] deals with Pseudomonas aeruginosa. The description is as above. The series is classed as cell-based. The note with it: nutrient agar, 37° C., 48 hours, DMSO zone subtracted; for inhibition zone, Pseudomonas aeruginosa, A: A = concentration of comp. = 10,000 μL; for inhibition zone, Pseudomonas aeruginosa, B: B = concentration of comp. = 30.000 μL; for inhibition zone, Pseudomonas aeruginosa, C: C = concentration of comp. = 50,000 μL. The protocol:
as §1, §2

Series [4] concerns Bacillus Cereus. The description is as above. It is filed as cell-based. The settings on record: nutrient agar, 37° C., 48 hours, DMSO zone subtracted; for inhibition zone, Bacillus Cereus, B: B = concentration of comp. = 30.000 μL; for inhibition zone, Bacillus Cereus, C: C = concentration of comp. = 50,000 μL. The protocol:
as §1, §2

The test system of series [5] is Aspergillus flavus. The series is described as follows: Agar plate disc-diffusion, antifungal activity (inhibition zone). The settings on record: Sabouraud's dextrose agar, 37° C., 72 hours, DMSO zone subtracted; for inhibition zone, Aspergillus flavus, A: A = concentration of comp. = 10,000 μL; for inhibition zone, Aspergillus flavus, B: B = concentration of comp. = 30.000 μL; for inhibition zone, Aspergillus flavus, C: C = concentration of comp. = 50,000 μL. The series is classed as cell-based. The protocol:
as §1, §2

Series [6] concerns Chrysosporium keratinophilum. The description is as above. It is filed as cell-based. The note with it: Sabouraud's dextrose agar, 37° C., 72 hours, DMSO zone subtracted; for inhibition zone, Chrysosporium keratinophilum, A: A = concentration of comp. = 10,000 μL; for inhibition zone, Chrysosporium keratinophilum, B: B = concentration of comp. = 30.000 μL; for inhibition zone, Chrysosporium keratinophilum, C: C = concentration of comp. = 50,000 μL. Here is the method: as §1, §2

`O=C(O)c1cn(C2CC2)c2cc(N3CCNCC3)c(F)cc2c1=O` [Cip., ciprofloxacin, reference compound]: in series [1], the “inhibition zone, Escherichia coli, A” value is 30 millimeter; the “inhibition zone, Escherichia coli, B” value is given as 39 millimeter; the “inhibition zone, Escherichia coli, C” value is listed as 60 millimeter. Besides, in series [2], the “inhibition zone, Staphylococcus aureus, A” value is reported as 43 millimeter; the “inhibition zone, Staphylococcus aureus, B” value amounted to 44 millimeter; the “inhibition zone, Staphylococcus aureus, C” value came to 53 millimeter. Moreover, in series [3], the “inhibition zone, Pseudomonas aeruginosa, A” value is 29 millimeter; the “inhibition zone, Pseudomonas aeruginosa, B” value stood at 30 millimeter; the “inhibition zone, Pseudomonas aeruginosa, C” value was 53 millimeter. Further, in series [4], the “inhibition zone, Bacillus Cereus, A” value turned out to be 29 millimeter; the “inhibition zone, Bacillus Cereus, B” value is recorded as 30 millimeter; the “inhibition zone, Bacillus Cereus, C” value was 42 millimeter. Moreover, in series [5], the “inhibition zone, Aspergillus flavus, A” value is on record as 29 millimeter; the “inhibition zone, Aspergillus flavus, B” value amounted to 30 millimeter; the “inhibition zone, Aspergillus flavus, C” value is on record as 42 millimeter. For the same compound, in series [6], the “inhibition zone, Chrysosporium keratinophilum, A” value worked out at 29 millimeter; the “inhibition zone, Chrysosporium keratinophilum, B” value was 30 millimeter; the “inhibition zone, Chrysosporium keratinophilum, C” value amounted to 53 millimeter.
As for `O=C1NC(=O)N(/N=C/c2ccccc2O)C1c1ccccc1` (stereo not shown) [Compound 4, 1-(2-hydroxybenzylideneamino)-5-phenylimidazolidine-2,4-dione], the melting point fell in the range of 161 to 163 °C. In series [1], the “inhibition zone, Escherichia coli, A” value came out at 27 millimeter; the “inhibition zone, Escherichia coli, B” value is listed as 36 millimeter; the “inhibition zone, Escherichia coli, C” value was found to be 49 millimeter. In series [2], the “inhibition zone, Staphylococcus aureus, A” value is recorded as 15 millimeter; the “inhibition zone, Staphylococcus aureus, B” value came to 19 millimeter; the “inhibition zone, Staphylococcus aureus, C” value is 27 millimeter. Also, in series [3], the “inhibition zone, Pseudomonas aeruginosa, A” value is on record as 20 millimeter; the “inhibition zone, Pseudomonas aeruginosa, B” value stood at 26 millimeter; the “inhibition zone, Pseudomonas aeruginosa, C” value worked out at 37 millimeter. For the same compound, in series [4], the “inhibition zone, Bacillus Cereus, A” value is 23 millimeter; the “inhibition zone, Bacillus Cereus, B” value is 27 millimeter; the “inhibition zone, Bacillus Cereus, C” value was found to be 35 millimeter. Besides, in series [5], the “inhibition zone, Aspergillus flavus, A” value was 24 millimeter; the “inhibition zone, Aspergillus flavus, B” value is given as 28 millimeter; the “inhibition zone, Aspergillus flavus, C” value was 38 millimeter. Further, in series [6], the “inhibition zone, Chrysosporium keratinophilum, A” value is 27 millimeter; the “inhibition zone, Chrysosporium keratinophilum, B” value came to 29 millimeter; the “inhibition zone, Chrysosporium keratinophilum, C” value was 48 millimeter.

One may read the melting point as the temperature, or range, at which the solid turns liquid.
